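Briefly, cells in 96-well plates were exposed to five compound concentrations for 48 h, and endpoints were estimated by linear interpolation. At the GI50, growth is halved.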 The source made the active and inactive calls. Cut-off read from the data, not from the text of the source: active = GI50 up to about 1.1 µM and inactive = higher.
Key:
Assay in all cases: NCI anticancer screen, dose series, 48 h
786-0 = system: 786-0
A498 = system: A498
A549 = system: A549
ACHN = system: ACHN
CAKI-1 = system: CAKI-1
CCRF-CEM = system: CCRF-CEM
COLO 205 = system: COLO 205
DLD-1 = system: DLD-1
DMS-114 = system: DMS-114
DMS-273 = system: DMS-273
EKVX = system: EKVX
HCC 2998 = system: HCC 2998
HCT-116 = system: HCT-116
HCT-15 = system: HCT-15
HL-60 = system: HL-60
HOP-62 = system: HOP-62
HT-29 = system: HT-29
IGROV-1 = system: IGROV-1
K562 = system: K562
KM-20L2 = system: KM-20L2
KM12 = system: KM12
LOX IMVI = system: LOX IMVI
M14 = system: M14
M19-MEL = system: M19-MEL
MOLT-4 = system: MOLT-4
Malme-3M = system: Malme-3M
NCI-H226 = system: NCI-H226
NCI-H23 = system: NCI-H23
NCI-H460 = system: NCI-H460
NCI-H522 = system: NCI-H522
OVCAR-3 = system: OVCAR-3
OVCAR-4 = system: OVCAR-4
OVCAR-5 = system: OVCAR-5
OVCAR-8 = system: OVCAR-8
RPMI-8226 = system: RPMI-8226
RXF 393 = system: RXF 393
RXF 631 = system: RXF 631
SF-268 = system: SF-268
SF-295 = system: SF-295
SF-539 = system: SF-539
SK-MEL-28 = system: SK-MEL-28
SK-MEL-2 = system: SK-MEL-2
SK-MEL-5 = system: SK-MEL-5
SK-OV-3 = system: SK-OV-3
SN12C = system: SN12C
SNB-19 = system: SNB-19
SNB-75 = system: SNB-75
SNB-78 = system: SNB-78
SR = system: SR
SW-620 = system: SW-620
TK-10 = system: TK-10
U-251 = system: U-251
UACC-257 = system: UACC-257
UACC-62 = system: UACC-62
UO-31 = system: UO-31
HOP-18 = system: HOP-18
HOP-92 = system: HOP-92
LXFL 529 = system: LXFL 529
XF498 = system: XF498

CC(C)CC(N/C=C1/N=C(c2ccccc2)OC1=O)C(=O)O (configuration not stated)
GI50 (786-0): > 100 µM (inactive)
GI50 (A498): > 100 µM (inactive)
GI50 (A549): > 100 µM (inactive)
GI50 (ACHN): > 100 µM (inactive)
GI50 (CAKI-1): > 100 µM (inactive)
GI50 (CCRF-CEM): > 100 µM (inactive)
GI50 (COLO 205): > 100 µM (inactive)
GI50 (DLD-1): > 100 µM (inactive)
GI50 (DMS-114): > 100 µM (inactive)
GI50 (DMS-273): > 100 µM (inactive)
GI50 (EKVX): > 100 µM (inactive)
GI50 (HCC 2998): > 100 µM (inactive)
GI50 (HCT-116): > 100 µM (inactive)
GI50 (HCT-15): > 100 µM
GI50 (HL-60): > 100 µM (inactive)
GI50 (HOP-62): > 100 µM (inactive)
GI50 (HT-29): > 100 µM (inactive)
GI50 (IGROV-1): > 100 µM (inactive)
GI50 (K562): > 100 µM (inactive)
GI50 (KM-20L2): > 100 µM (inactive)
GI50 (KM12): > 100 µM (inactive)
GI50 (LOX IMVI): > 100 µM (inactive)
GI50 (M14): > 100 µM (inactive)
GI50 (M19-MEL): > 100 µM (inactive)
GI50 (MOLT-4): > 100 µM (inactive)
GI50 (Malme-3M): > 100 µM (inactive)
GI50 (NCI-H226): > 100 µM (inactive)
GI50 (NCI-H23): > 100 µM (inactive)
GI50 (NCI-H460): > 100 µM (inactive)
GI50 (NCI-H522): > 100 µM (inactive)
GI50 (OVCAR-3): > 100 µM (inactive)
GI50 (OVCAR-4): > 100 µM (inactive)
GI50 (OVCAR-5): > 100 µM (inactive)
GI50 (OVCAR-8): > 100 µM (inactive)
GI50 (RPMI-8226): > 100 µM (inactive)
GI50 (RXF 393): > 100 µM (inactive)
GI50 (RXF 631): > 100 µM (inactive)
GI50 (SF-268): > 100 µM (inactive)
GI50 (SF-295): > 100 µM (inactive)
GI50 (SF-539): > 100 µM (inactive)
GI50 (SK-MEL-28): > 100 µM (inactive)
GI50 (SK-MEL-2): > 100 µM (inactive)
GI50 (SK-MEL-5): > 100 µM (inactive)
GI50 (SK-OV-3): > 100 µM (inactive)
GI50 (SN12C): > 100 µM (inactive)
GI50 (SNB-19): > 100 µM (inactive)
GI50 (SNB-75): 37.3 µM (inactive)
GI50 (SNB-78): > 100 µM (inactive)
GI50 (SR): > 100 µM (inactive)
GI50 (SW-620): > 100 µM (inactive)
GI50 (TK-10): > 100 µM (inactive)
GI50 (U-251): > 100 µM (inactive)
GI50 (UACC-257): > 100 µM (inactive)
GI50 (UACC-62): > 100 µM (inactive)
GI50 (UO-31): > 100 µM (inactive)

COC1O[C@H]2CCN(C(=O)OCc3ccccc3)[C@H]2[C@H]1OCc1ccccc1 (some centres not stated)
GI50 (786-0): > 100 µM (inactive)
GI50 (A498): > 100 µM (inactive)
GI50 (A549): 4.33 µM (inactive)
GI50 (ACHN): 39.6 µM (inactive)
GI50 (CAKI-1): 40.3 µM (inactive)
GI50 (CCRF-CEM): 34.9 µM (inactive)
GI50 (COLO 205): 70.3 µM (inactive)
GI50 (DLD-1): 48.3 µM (inactive)
GI50 (DMS-114): 29.6 µM (inactive)
GI50 (DMS-273): 39.1 µM (inactive)
GI50 (EKVX): 49.2 µM (inactive)
GI50 (HCC 2998): 47.6 µM (inactive)
GI50 (HCT-116): 46.6 µM (inactive)
GI50 (HCT-15): 36.5 µM
GI50 (HL-60): 28.4 µM (inactive)
GI50 (HOP-18): > 100 µM (inactive)
GI50 (HOP-62): > 100 µM (inactive)
GI50 (HOP-92): 26.6 µM (inactive)
GI50 (HT-29): 40.9 µM (inactive)
GI50 (IGROV-1): 49.5 µM (inactive)
GI50 (K562): 30.5 µM (inactive)
GI50 (KM-20L2): 69.2 µM (inactive)
GI50 (LOX IMVI): 56.6 µM (inactive)
GI50 (LXFL 529): 40.2 µM (inactive)
GI50 (M14): 46.3 µM (inactive)
GI50 (M19-MEL): 53 µM (inactive)
GI50 (MOLT-4): 36 µM (inactive)
GI50 (Malme-3M): 45.6 µM (inactive)
GI50 (NCI-H226): 78 µM (inactive)
GI50 (NCI-H23): 20.3 µM (inactive)
GI50 (NCI-H460): 44.3 µM (inactive)
GI50 (NCI-H522): 37.6 µM (inactive)
GI50 (OVCAR-3): 42.6 µM (inactive)
GI50 (OVCAR-4): > 62.4 µM (inactive)
GI50 (OVCAR-5): > 100 µM (inactive)
GI50 (OVCAR-8): 69.7 µM (inactive)
GI50 (RPMI-8226): 41 µM (inactive)
GI50 (RXF 393): 50 µM (inactive)
GI50 (SF-268): 50.2 µM (inactive)
GI50 (SF-295): 49.9 µM (inactive)
GI50 (SF-539): > 100 µM (inactive)
GI50 (SK-MEL-28): 41.2 µM (inactive)
GI50 (SK-MEL-2): 29.8 µM (inactive)
GI50 (SK-MEL-5): 24.1 µM (inactive)
GI50 (SK-OV-3): 23.6 µM (inactive)
GI50 (SN12C): > 100 µM (inactive)
GI50 (SNB-19): 89.3 µM (inactive)
GI50 (SNB-75): 41.9 µM (inactive)
GI50 (SNB-78): 54.8 µM (inactive)
GI50 (SR): 30.3 µM (inactive)
GI50 (SW-620): 50.2 µM (inactive)
GI50 (TK-10): > 41.4 µM (inactive)
GI50 (U-251): 45.9 µM (inactive)
GI50 (UACC-257): 43.8 µM (inactive)
GI50 (UACC-62): 21.5 µM (inactive)
GI50 (UO-31): 29.2 µM (inactive)
GI50 (XF498): 35.2 µM (inactive)
